These results are taken from ChEMBL document CHEMBL1201862, “PubChem BioAssay data set” (2004).

The structures appear in SMILES notation. Calls of active or inactive are those of the source. Cut-off read from the data, not from the text of the source, for most assays here: actives have a measured EC50 and inactives only a lower limit.

For experiment [1], the target named is Luciferin 4-monooxygenase (Photinus pyralis, UniProt P08659). Kind of experiment: firefly luciferase enzyme inhibitors, dose response, biochemical, luminescence (AID 1891).
The nature of experiment [2]: Luminescence Cell-Based Dose Confirmation HTS to Identify Inhibitors of Platelet Dense Granule Release. [Related pubchem assays: 1663 (Primary HTS), 1678 (Summary of Project)]. It counts as functional.
The nature of experiment [3]: Luminescence Cell-Based Dose Retest to Confirm Inhibitors of Cancer Stem Cells. [Related pubchem assays (depositor defined):AID2717, AID2721]. It counts as functional. Particulars: Homo sapiens.
Experiment [4] can be described thus: inhibitors of intracellular T. cruzi replication, confirmation, NIH3T3 host cells, beta-gal luminescence (AID 2044).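 Note: intracellular parasites grown in NIH/3T3 mouse fibroblasts as host cells; luminescent beta-galactosidase reporter signal from transgenic T. cruzi replicating inside host cells; inhibitors lower the luminescence signal.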 It counts as functional, cell-based.
Experiment [5] is described as follows: cytotoxicity toward NIH3T3 fibroblasts, dose response, counter-screen, cell-based, ATP luminescence, mouse fibroblasts (AID 2010).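 Note: cells exposed to compound for about 90 hours before reading.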 It counts as functional. In general terms: Counterscreens check selectivity or assay interference.
Experiment [6] can be described thus: P. falciparum Dd2 growth inhibitors, dose response, SYBR Green, cherry-picked samples (AID 1159567). It counts as functional, cell-based.
A further experiment has as its target T1, Cytochrome P450 1A2 (Homo sapiens, UniProt P05177).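 Note: PubChem cytochrome P450 panel assay, CYP1A2 panel member.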
T1 sequence (P05177 whole entry): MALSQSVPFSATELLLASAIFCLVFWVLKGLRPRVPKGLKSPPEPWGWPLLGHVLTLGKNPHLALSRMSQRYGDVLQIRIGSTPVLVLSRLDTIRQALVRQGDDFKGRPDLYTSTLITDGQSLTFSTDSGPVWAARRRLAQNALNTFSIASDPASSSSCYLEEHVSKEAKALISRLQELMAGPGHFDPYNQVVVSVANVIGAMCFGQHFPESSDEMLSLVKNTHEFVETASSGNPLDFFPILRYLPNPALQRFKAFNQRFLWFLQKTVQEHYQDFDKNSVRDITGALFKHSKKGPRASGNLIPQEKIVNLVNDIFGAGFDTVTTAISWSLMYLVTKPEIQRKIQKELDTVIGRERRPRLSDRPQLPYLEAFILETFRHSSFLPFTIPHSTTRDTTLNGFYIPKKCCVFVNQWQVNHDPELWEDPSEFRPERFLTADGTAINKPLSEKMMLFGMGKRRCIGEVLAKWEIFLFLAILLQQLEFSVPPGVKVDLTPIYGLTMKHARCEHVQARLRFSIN

A short description of experiment [7]: microbe, parasite or virus in culture. It counts as functional. Particulars: Mycobacterium tuberculosis.
Experiment [8] is described as follows: Luminescence Cell-Based Dose Confirmation HTS to Identify Activators of 5'UTR Stem-Loop Driven Alpha-Synuclein mRNA Translation in H4 Neuroglioblastoma Cells. [Related pubchem assays: 1829 (Project Summary), 1814 (Primary HTS)]. It counts as functional.
Experiment [9] in a line: Luminescence Cell-Based Dose Response HTS to Identify Activators of Luciferase Translation or Activity in H4 […] Cells. [Related pubchem assays: 1829 (Project Summary), 1814 (Primary HTS)]. It counts as functional.
In another experiment the test system is H4. The experiment in a line: Luminescence Cell-Based Dose Response HTS to Identify Activators of 5'UTR Stem-Loop Driven Prion Protein mRNA Translation in H4 Neuroglioblastoma Cells. [Related pubchem assays: 1829 (Project Summary), 1814 (Primary HTS)]. It counts as functional. Particulars: Homo sapiens.
Experiment [10] concerns Streptococcus sp. 'group A'. The experiment in a line: growth inhibition of control SK(-) GAS strain, dose response, counter-screen for streptokinase expression inhibitor project, luminescence, kanamycin, BacTiterGlo, confirmation (AID 1900). It counts as functional, organism-based.
For a further experiment, the target named is T2, Streptokinase A (Streptococcus pyogenes serotype M1, UniProt P10520).
T2 sequence (P10520 whole entry): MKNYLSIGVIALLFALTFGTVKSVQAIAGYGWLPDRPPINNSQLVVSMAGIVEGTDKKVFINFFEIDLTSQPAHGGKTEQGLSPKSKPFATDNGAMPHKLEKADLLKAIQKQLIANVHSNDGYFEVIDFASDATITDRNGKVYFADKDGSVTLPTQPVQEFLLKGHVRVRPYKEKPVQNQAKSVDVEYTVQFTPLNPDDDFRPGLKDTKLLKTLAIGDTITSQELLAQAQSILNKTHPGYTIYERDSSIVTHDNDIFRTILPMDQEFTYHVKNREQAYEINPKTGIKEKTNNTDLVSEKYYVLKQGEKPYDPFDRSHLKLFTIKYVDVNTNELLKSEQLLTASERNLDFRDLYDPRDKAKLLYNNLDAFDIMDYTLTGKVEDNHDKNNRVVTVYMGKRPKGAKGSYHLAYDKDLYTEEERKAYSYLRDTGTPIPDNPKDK
Kind of experiment: S. pyogenes streptokinase expression inhibitors, potency, dose response, plasminogen activation absorbance, OD405 (AID 1914).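 Note: secreted streptokinase activity via plasminogen activation per viability signal from cell pellet.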 It counts as functional, Streptococcus pyogenes M1 GAS.

The test system of another experiment is Streptococcus. The experiment in a line: Group A Streptococcus viability loss, dose response, counter-screen for streptokinase expression inhibitor project, luminescence, BacTiterGlo (AID 1915).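 Note: potency for reduction of bacterial viability or growth.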 It counts as functional, organism-based.
The target in experiment [11] is T3, Replicative DNA helicase DnaB (Mycobacterium tuberculosis, UniProt P9WMR3).
T3 sequence (P9WMR3 whole entry): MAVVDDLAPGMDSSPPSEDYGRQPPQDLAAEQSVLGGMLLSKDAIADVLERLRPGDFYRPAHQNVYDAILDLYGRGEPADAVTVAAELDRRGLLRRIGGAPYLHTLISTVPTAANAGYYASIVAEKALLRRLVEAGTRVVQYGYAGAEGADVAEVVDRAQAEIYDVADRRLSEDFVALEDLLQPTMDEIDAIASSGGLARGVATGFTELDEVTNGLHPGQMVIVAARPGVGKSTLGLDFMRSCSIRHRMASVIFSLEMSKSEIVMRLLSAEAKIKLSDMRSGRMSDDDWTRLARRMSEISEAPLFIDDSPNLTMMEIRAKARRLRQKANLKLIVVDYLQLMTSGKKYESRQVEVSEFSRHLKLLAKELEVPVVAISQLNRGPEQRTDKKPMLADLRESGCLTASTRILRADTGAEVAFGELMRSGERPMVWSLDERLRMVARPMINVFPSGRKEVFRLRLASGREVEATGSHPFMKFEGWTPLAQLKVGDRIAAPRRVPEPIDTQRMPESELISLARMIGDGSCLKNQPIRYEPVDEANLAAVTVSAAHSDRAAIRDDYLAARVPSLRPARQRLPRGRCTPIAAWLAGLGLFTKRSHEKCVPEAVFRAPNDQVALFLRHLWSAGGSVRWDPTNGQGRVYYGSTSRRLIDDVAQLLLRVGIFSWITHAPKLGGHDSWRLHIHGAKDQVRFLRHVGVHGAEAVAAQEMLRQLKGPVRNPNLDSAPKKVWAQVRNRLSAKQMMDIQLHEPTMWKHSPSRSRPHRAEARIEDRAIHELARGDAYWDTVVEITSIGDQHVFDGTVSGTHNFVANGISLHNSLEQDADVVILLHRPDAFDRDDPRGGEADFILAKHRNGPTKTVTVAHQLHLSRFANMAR
The experiment in a line: DnaB intein splicing inhibitors, dose response, biochemical, cell-free fluorescence (AID 449749). It counts as functional.

In a further experiment the target is T4, Protein RecA (Mycobacterium tuberculosis, UniProt P9WHJ3).
T4 sequence (P9WHJ3 whole entry): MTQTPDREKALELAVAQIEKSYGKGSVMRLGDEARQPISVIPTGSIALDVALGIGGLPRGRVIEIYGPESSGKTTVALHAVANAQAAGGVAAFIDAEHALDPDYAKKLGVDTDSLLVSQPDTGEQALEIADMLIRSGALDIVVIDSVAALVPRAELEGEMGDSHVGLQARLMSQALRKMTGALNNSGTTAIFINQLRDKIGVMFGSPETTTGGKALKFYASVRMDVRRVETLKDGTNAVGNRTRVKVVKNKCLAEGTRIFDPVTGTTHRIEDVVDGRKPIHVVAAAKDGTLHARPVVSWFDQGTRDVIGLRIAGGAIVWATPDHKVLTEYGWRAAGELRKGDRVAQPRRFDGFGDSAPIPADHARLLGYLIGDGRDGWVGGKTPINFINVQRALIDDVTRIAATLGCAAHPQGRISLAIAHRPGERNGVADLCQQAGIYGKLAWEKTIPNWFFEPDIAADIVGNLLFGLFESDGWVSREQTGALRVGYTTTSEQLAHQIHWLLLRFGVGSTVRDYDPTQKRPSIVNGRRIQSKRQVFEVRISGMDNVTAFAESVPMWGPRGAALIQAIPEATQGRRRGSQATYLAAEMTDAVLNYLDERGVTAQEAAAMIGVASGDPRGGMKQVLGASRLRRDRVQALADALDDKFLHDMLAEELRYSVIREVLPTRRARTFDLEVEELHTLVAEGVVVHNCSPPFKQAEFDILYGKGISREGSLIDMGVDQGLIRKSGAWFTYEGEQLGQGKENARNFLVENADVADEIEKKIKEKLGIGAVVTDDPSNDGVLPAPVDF
The experiment in a line: Fluorescence Cell-Free Homogeneous Dose Retest to Identify Inhibitors of RecA-Intein Splicing Activity. [Related pubchem assays (depositor defined):AID2097, AID2223, AID489010, AID492950]. It counts as functional.

Luciferin 4-monooxygenase, sequence (P08659 whole entry): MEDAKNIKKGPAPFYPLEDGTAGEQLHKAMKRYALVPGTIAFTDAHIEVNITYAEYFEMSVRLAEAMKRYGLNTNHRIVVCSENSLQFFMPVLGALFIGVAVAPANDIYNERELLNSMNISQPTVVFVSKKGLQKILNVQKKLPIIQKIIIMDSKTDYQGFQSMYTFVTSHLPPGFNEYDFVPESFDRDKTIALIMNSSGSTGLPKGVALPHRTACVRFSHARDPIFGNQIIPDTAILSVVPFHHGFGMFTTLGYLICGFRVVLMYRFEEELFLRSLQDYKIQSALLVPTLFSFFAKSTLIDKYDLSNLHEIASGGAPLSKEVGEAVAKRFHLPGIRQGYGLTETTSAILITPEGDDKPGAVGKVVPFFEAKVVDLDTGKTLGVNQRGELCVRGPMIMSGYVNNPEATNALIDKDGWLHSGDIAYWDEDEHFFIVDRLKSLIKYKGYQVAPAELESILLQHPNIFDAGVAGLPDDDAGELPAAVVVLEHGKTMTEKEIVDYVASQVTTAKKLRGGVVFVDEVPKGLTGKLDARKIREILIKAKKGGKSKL

Broadly, the EC50 is the concentration needed to bring the measured effect to its halfway point. As for `CC(C)(CO)NCC(O)COc1ccc2c(c1)CCC2` (configuration not stated), the half-maximal effective concentration (EC50) in experiment [1] and in experiment [2] was > 112 µM (not active) each time.
What is called AC50 is the concentration giving half of the maximal activity seen. In the case of `Cc1cc(C)nc(NC(=O)c2ccc(COc3ccccc3Cl)cc2)c1`, the AC50 in experiment [3] was 0.245 µM (active).
For `CCOc1cc(CNc2ccc(Br)cc2)cc(Br)c1OCC(=O)NC(C)(C)C`, the EC50 was 1.91 µM (active) in [4] and 37.3 µM (active) in [5]. Also, in experiment [3], the AC50 is 31.6 µM (active).
Regarding `Cc1cc(C)n2nc(SCc3cc(=O)oc4cc(C)c(C)cc34)nc2n1`, the EC50 in experiment [1] and in [2] was > 112 µM (not active) throughout.
As to `CCCNC(=O)N1[C@@H](C#N)[C@H](c2ccccc2-c2ccccc2F)[C@@H]1CO`, the AC50 in experiment [6] was 18.8 µM (active).
For `COC(=O)c1cc(NC2c3ccccc3C(=O)N2c2cccnc2)cc(C(=O)OC)c1` (configuration not stated), the EC50 in [1] and in [2] was > 112 µM (not active) throughout.
With `COC(=O)C1CSC(C(=O)OC)N1C(=O)Nc1ccccc1` (configuration not stated), the EC50 in [1] and in experiment [2] was > 112 µM (not active) in each case. The AC50 on Cytochrome P450 1A2 was 25.1 µM (inconclusive).
For `CN1CCN(C(=O)C[C@H]2C[C@@H]3c4cc(NC(=O)Nc5ccc(C(F)(F)F)cc5)ccc4O[C@@H]3[C@@H](CO)O2)CC1`, the AC50 in experiment [6] is 5.16 µM (active).
On to `COc1ccc(CN2CCCC(C(=O)c3ccc(SC)cc3)C2)cc1Cn1cccn1` (configuration not stated), for which, in [7], the CC50 is > 40 µM (active).
`Cc1ccc(C(=O)NCCn2cc(SCC(=O)Nc3nnc(C)s3)c3ccccc32)cc1`: the EC50 was 7.83 µM (active) in experiment [8]; 23.2 µM (active) in [9]; > 120 µM (not active) in the experiment with H4; > 112 µM (not active) in experiment [1]; > 112 µM (not active) in [2].
Consider `Fc1ccc(-[n+]2nc(Nc3ccccc3)sc2-c2c3ccccc3cc3ccccc23)cc1`, for which the EC50 in experiment [10] was 6.85 µM (active); on Streptokinase A it was 3.22 µM (active); in the experiment with Streptococcus, 9.23 µM (active); at Protein RecA, 10.6 µM (active). In addition, the AC50 in experiment [11] is > 380 µM (inactive).
Regarding `Cc1onc(-c2ccccc2)c1C(=O)N=C(N)c1ccc(Cl)cc1`, the results for the EC50 in experiment [1] and in experiment [2] were > 112 µM (not active) and 28.4 µM (active), respectively.
In the same order, the values of `O=S(=O)(CCc1ccccc1)/N=C/c1cccs1` are > 112 µM (not active) and > 112 µM (not active).
As for `CC(=O)Nc1cc(OC(=O)c2ccco2)cc(OC(=O)c2ccco2)c1`, the AC50 in experiment [11] was 1.77 µM (active). Also, the EC50 at Protein RecA is 1.03 µM (active).
For the compound `COc1ccc2c3c([nH]c2c1)[C@@H](CO)N(Cc1cccc(Cl)c1)CC31CCN(C(C)=O)CC1`, in experiment [6], the AC50 was 3.22 µM (active).
In the case of `CCOc1ccc(N2C=Nc3ccc(OCC)cc3C2)cc1`, in experiment [7], the CC50 was > 40 µM (active).
In the case of `CCC(=O)N1c2ccc(S(=O)(=O)CCC(=O)N3CCN(c4ccccc4F)CC3)cc2CC1C` (configuration not stated), the EC50 in experiment [1] and in [2] was > 112 µM (not active) in each case.
For the compound `Cc1sc2ncnc(N3CCC(C(=O)NCC(=O)Nc4ccc(F)c(F)c4)CC3)c2c1C`, the EC50 is 4.44 µM (active) in [10] and 8.01 µM (active) with Streptococcus. Besides, the CC50 in experiment [7] is 30.4 µM (active).
On to `CCOc1ccc2nc(NC(=O)c3ccc(C)o3)sc2c1`, for which the EC50 in experiment [1] is 0.562 µM (active); in [2], 5.87 µM (active).
`COc1ccccc1-c1sc2ccccc2c1C#CC1(O)CCCCC1`: the AC50 in experiment [3] is 5.11 µM (active).
For the compound `Cc1nccn1-c1c([N+](=O)[O-])c(=O)n(C)c2ccccc12`, the AC50 in [11] is 29 µM (active). In addition, the EC50 at Protein RecA was 12.2 µM (active).
`Cc1n[nH]c(O)c1[C@@H](c1ccccc1[N+](=O)[O-])C(C#N)C#N`: the EC50 at Protein RecA is 2.63 µM (active).
For `CN1C(C(=O)NCc2ccc(OC(F)(F)F)cc2)CC2Cn3c(nc4cc(Cl)c(Cl)cc43)C21` (configuration not stated), the CC50 in experiment [7] is 34.1 µM (active).
As to `NC(=O)CC(NC(=O)Cc1ccc(Br)cc1)c1ccc(N2CCN(c3ccccc3)CC2)c([N+](=O)[O-])c1` (configuration not stated), the AC50 in experiment [3] is 14.4 µM (active).
